Results as given in US20100311683A1, “CYTIDINE ANALOGS FOR TREATMENT OF MYELODYSPLASTIC SYNDROMES” (priority 2007, published 2010).
Read-outs that look alike come from different tables or passages of the source.

What was measured:
[1] = tested on: high-risk MDS patients with -7/del(7q); experiment: AZA-001 subgroup analysis: patients with -7/del(7q); type: in vivo, human
MDS patients [2] = conditions: pivotal CALGB study, approved Aza dose regimen subcutaneously; cited from earlier work
MDS patients [3] = tested on: MDS patients
[4] = tested on: patients older than 55 years of age with AML; conditions: patients older than 55 years with AML, prior retrospective analysis; cited from earlier work
[5] = tested on: patients ≥60 years with AML
[6] = tested on: patients with hematologic disorders, predominantly low-risk MDS; experiment: AVIDA longitudinal registry of patients receiving azacitidine (transfusion independence); type: in vivo, human
Source text: The study assessed usage patterns and transfusion requirements in patients enrolled in AVIDA, a longitudinal registry of patients with hematologic disorders receiving azacitidine, to further the understanding of current azacitidine treatment patterns in the community, identify common care procedures and concomitant treatments, and document transfusion requirements. Baseline demographics and disease characteristics were obtained at enrollment.

## Nc1ncn([C@@H]2O[C@H](CO)[C@@H](O)[C@H]2O)c(=O)n1 [azacitidine, 4-amino-1-β-D-ribofuranosyl-1,3,5-triazin-2(1H)-one]
[1]; -7/del(7q) alone
  IWG 2000 response rate (CR+PR): 64%
[1]; -7/del(7q) as part of complex karyotype
  IWG 2000 response rate (CR+PR): 21%
[1]; -7/del(7q) patients
  CR: 8/30, 27%
  CR + PR: 13/30, 43%
  HI-E: 13/26, 50%
  HI-P: 10/20, 50%
[1]; RBC-dependent -7/del(7q) patients at BL
  RBC TI (transfusion independence): 12/21, 57%
[1]; patients with -7/del(7q)
  OS advantage at 2 years vs CCR: 4 fold
  hazard ratio for overall survival, azacitidine vs CCR: 0.33
  improvement in OS over CCR: 3 fold
  median Kaplan Meier difference in OS, AZA vs CCR: 8.4 months
  patients alive at 2 years: 33%
  reduced risk of death vs CCR: 67%
  tolerability: generally well tolerated
[1]; patients with -7/del(7q), azacitidine n=30
  median Kaplan-Meier overall survival: 13.1 months
MDS patients [2]
  baseline RBC transfusion dependent patients who achieved transfusion independence: 45%
MDS patients [3]; AZA 5 (75 mg/m2/d x5d)
  FAB low-risk patients RBC transfusion independent at baseline who remained independent during the study: 64%
  RBC transfusion-dependent patients who achieved and retained independence at the end of cycle 6: 63%
  evaluable patients RBC transfusion independent at baseline who remained independent during the study: 68%
  mean duration of RBC transfusion independence: 109 days
  onset of HI within the first 3 cycles: 96%
  patients with at least 1 treatment-emergent AE that led to study discontinuation: 14%
  patients with bilineage HI: 10%
  patients with serious AEs: 30%
MDS patients [3]; AZA 5 (75 mg/m2/d x5d), N=49
  Any HI (major and minor): 27 (55) [40, 69] %
  Erythroid Major HI (IWG 2000), evaluable patients: 18 (37) [23, 52] %
  Erythroid Minor HI: 1 (2) [0.1, 11] %
  Neutrophil Major HI: 4 (8) [40, 100] %
  Neutrophil Minor HI: 2 (4) [0.5, 14] %
  Platelet Major HI: 9 (18) [9, 32] %
  Platelet Minor HI: 2 (4) [0.5, 14] %
MDS patients [3]; AZA 5 (75 mg/m2/d x5d), N=50
  Grade 3/4 AE: Anemia: 5 (10) %
  Grade 3/4 AE: Candida Sepsis: 1 (2) %
  Grade 3/4 AE: Cellulitis: 1 (2) %
  Grade 3/4 AE: Epistaxis: 0%
  Grade 3/4 AE: Febrile neutropenia: 1 (2) %
  Grade 3/4 AE: GI hemorrhage: 0%
  Grade 3/4 AE: Hematologic Disorders: 17 (34) %
  Grade 3/4 AE: Hemorrhagic Events: 1 (2) %
  Grade 3/4 AE: Hemorrhagic anemia: 1 n (%)
  Grade 3/4 AE: Infections: 5 (10) %
  Grade 3/4 AE: Leukopenia: 4 (8) %
  Grade 3/4 AE: Neutropenia: 11 (22) %
  Grade 3/4 AE: Pneumonia: 1 (2) %
  Grade 3/4 AE: Rectal hemorrhage: 0%
  Grade 3/4 AE: Thrombocytopenia: 6 (12) %
  Grade 3/4 AE: Urinary tract infection: 0%
  Grade 3/4 AE: ≥1 Adverse Event: 29 (58) %
MDS patients [3]; AZA 5 (75 mg/m2/d x5d), n=28
  onset of IWG-defined HI in Cycle 1: 15 (54) %
  onset of IWG-defined HI in Cycle 2: 10 (36) %
  onset of IWG-defined HI in Cycle 3: 2 (7) %
  onset of IWG-defined HI in Cycle 4: 1 (4) %
  onset of IWG-defined HI in Cycle 5: 0%
  onset of IWG-defined HI in Cycle 6: 0%
MDS patients [3]; AZA 5-2-2 (75 mg/m2/d)
  FAB low-risk patients RBC transfusion independent at baseline who remained independent during the study: 75%
  RBC transfusion-dependent patients who achieved and retained independence at the end of cycle 6: 100%
  evaluable patients RBC transfusion independent at baseline who remained independent during the study: 67%
  mean duration of RBC transfusion independence: 135 days
  onset of HI within the first 3 cycles: 87%
  patients with at least 1 treatment-emergent AE that led to study discontinuation: 18%
  patients with bilineage HI: 11%
  patients with serious AEs: 54%
MDS patients [3]; AZA 5-2-2 (75 mg/m2/d), N=46
  Any HI (major and minor): 20 (44) [29, 59] %
  Erythroid Major HI (IWG 2000), evaluable patients: 15 (33) [20, 48] %
  Erythroid Minor HI: 1 (2) [0.1, 12] %
  Neutrophil Major HI: 3 (7) [29, 100] %
  Neutrophil Minor HI: 0 [0, 8] %
  Platelet Major HI: 10 (22) [11, 36] %
  Platelet Minor HI: 0 [0, 8] %
MDS patients [3]; AZA 5-2-2 (75 mg/m2/d), N=50
  Grade 3/4 AE: Anemia: 12 (24) %
  Grade 3/4 AE: Candida Sepsis: 0%
  Grade 3/4 AE: Cellulitis: 2 (4) %
  Grade 3/4 AE: Epistaxis: 1 (2) %
  Grade 3/4 AE: Febrile neutropenia: 4 (8) %
  Grade 3/4 AE: GI hemorrhage: 1 (2) %
  Grade 3/4 AE: Hematologic Disorders: 33 (66) %
  Grade 3/4 AE: Hemorrhagic Events: 4 (8) %
  Grade 3/4 AE: Hemorrhagic anemia: 0 n (%)
  Grade 3/4 AE: Infections: 11 (22) %
  Grade 3/4 AE: Leukopenia: 7 (14) %
  Grade 3/4 AE: Neutropenia: 21 (42) %
  Grade 3/4 AE: Pneumonia: 0%
  Grade 3/4 AE: Rectal hemorrhage: 0%
  Grade 3/4 AE: Thrombocytopenia: 13 (26) %
  Grade 3/4 AE: Urinary tract infection: 0%
  Grade 3/4 AE: ≥1 Adverse Event: 42 (84) %
MDS patients [3]; AZA 5-2-2 (75 mg/m2/d), n=22
  onset of IWG-defined HI in Cycle 1: 9 (41) %
  onset of IWG-defined HI in Cycle 2: 9 (41) %
  onset of IWG-defined HI in Cycle 3: 1 (5) %
  onset of IWG-defined HI in Cycle 4: 0%
  onset of IWG-defined HI in Cycle 5: 2 (9) %
  onset of IWG-defined HI in Cycle 6: 1 (5) %
MDS patients [3]; AZA 5-2-5 (50 mg/m2/d)
  FAB low-risk patients RBC transfusion independent at baseline who remained independent during the study: 80%
  RBC transfusion-dependent patients who achieved and retained independence at the end of cycle 6: 92%
  evaluable patients RBC transfusion independent at baseline who remained independent during the study: 79%
  mean duration of RBC transfusion independence: 138 days
  onset of HI within the first 3 cycles: 88%
  patients with at least 1 treatment-emergent AE that led to study discontinuation: 20%
  patients with bilineage HI: 7%
  patients with serious AEs: 40%
MDS patients [3]; AZA 5-2-5 (50 mg/m2/d), N=44
  Any HI (major and minor): 23 (52) [37, 68] %
  Erythroid Major HI (IWG 2000), evaluable patients: 17 (39) [24, 55] %
  Erythroid Minor HI: 1 (2) [0.1, 12] %
  Neutrophil Major HI: 4 (9) [40, 100] %
  Neutrophil Minor HI: 0 [0, 8] %
  Platelet Major HI: 8 (18) [8, 33] %
  Platelet Minor HI: 0 [0, 8] %
MDS patients [3]; AZA 5-2-5 (50 mg/m2/d), N=48
  Grade 3/4 AE: Anemia: 7 (15) %
  Grade 3/4 AE: Candida Sepsis: 0%
  Grade 3/4 AE: Cellulitis: 1 (2) %
  Grade 3/4 AE: Epistaxis: 0%
  Grade 3/4 AE: Febrile neutropenia: 4 (8) %
  Grade 3/4 AE: GI hemorrhage: 1 (2) %
  Grade 3/4 AE: Hematologic Disorders: 24 (50) %
  Grade 3/4 AE: Hemorrhagic Events: 3 (6) %
  Grade 3/4 AE: Hemorrhagic anemia: 0 n (%)
  Grade 3/4 AE: Infections: 14 (29) %
  Grade 3/4 AE: Leukopenia: 4 (8) %
  Grade 3/4 AE: Neutropenia: 15 (31) %
  Grade 3/4 AE: Pneumonia: 4 (8) %
  Grade 3/4 AE: Rectal hemorrhage: 1 (2) %
  Grade 3/4 AE: Thrombocytopenia: 7 (15) %
  Grade 3/4 AE: Urinary tract infection: 3 (6) %
  Grade 3/4 AE: ≥1 Adverse Event: 37 (77) %
MDS patients [3]; AZA 5-2-5 (50 mg/m2/d), n=24
  onset of IWG-defined HI in Cycle 1: 6 (25) %
  onset of IWG-defined HI in Cycle 2: 8 (33) %
  onset of IWG-defined HI in Cycle 3: 7 (29) %
  onset of IWG-defined HI in Cycle 4: 2 (8) %
  onset of IWG-defined HI in Cycle 6: 0%
MDS patients [3]; all 3 regimens
  hematologic AE: anemia: 29%
  hematologic AE: leukopenia: 18%
  hematologic AE: neutropenia: 38%
  hematologic AE: thrombocytopenia: 24%
  nonhematologic AE: constipation: 51%
  nonhematologic AE: fatigue: 93%
  nonhematologic AE: injection site erythema: 55%
  nonhematologic AE: injection site pain: 54%
  nonhematologic AE: nausea: 55%
MDS patients [3]; all 3 regimens, N=148
  Grade 3/4 AE: Anemia: 24 (16) %
  Grade 3/4 AE: Candida Sepsis: 1 (1) %
  Grade 3/4 AE: Cellulitis: 4 (3) %
  Grade 3/4 AE: Epistaxis: 1 (1) %
  Grade 3/4 AE: Febrile neutropenia: 9 (6) %
  Grade 3/4 AE: GI hemorrhage: 2 (1) %
  Grade 3/4 AE: Hematologic Disorders: 74 (50) %
  Grade 3/4 AE: Hemorrhagic Events: 8 (5) %
  Grade 3/4 AE: Infections: 30 (20) %
  Grade 3/4 AE: Leukopenia: 15 (10) %
  Grade 3/4 AE: Neutropenia: 47 (32) %
  Grade 3/4 AE: Pneumonia: 5 (3) %
  Grade 3/4 AE: Rectal hemorrhage: 1 (1) %
  Grade 3/4 AE: Thrombocytopenia: 26 (18) %
  Grade 3/4 AE: Urinary tract infection: 3 (2) %
  Grade 3/4 AE: ≥1 Adverse Event: 108 (73) %
MDS patients [3]; all 3 regimens, n=12
  serious AEs involving GI disorders: 8%
MDS patients [3]; all 3 regimens, n=19
  serious AEs involving blood or lymphatic system disorders: 13%
MDS patients [3]; all 3 regimens, n=31
  serious AEs involving infections: 21%
MDS patients [3]; each alternative dosing regimen group
  patients platelet transfusion independent at baseline who remained independent: ≥ 92%
MDS patients [3]; each of the 3 alternative treatment groups (2 patients each)
  patients with trilineage HI: 4%
MDS patients [3]; five patients (AZA 5-2-2 n=2, AZA 5 n=3)
  platelet transfusion independence in baseline-dependent patients: all of whom achieved transfusion independence
MDS patients [3]; three alternative dosing regimens
  tolerability: generally well tolerated
[4]
  overall response rate: 60%
[5]; 5/8
  fatigue: 63%
  mild injection site skin reaction: 63%
[5]; all patients
  mean overall survival time from diagnosis: 180 days
[5]; azacitidine 100 mg/m2 SC 5 days every 28 days, 6/8 patients
  overall response rate: 75%
[5]; in vivo
  mean number of days hospitalized during therapy: 18 days
  treatment related deaths: No treatment related deaths were observed
[5]; n=2 of 8
  complete response (CR): 25%
[5]; n=4 of 8
  partial response (PR): 50%
[5]; responders
  mean overall survival time: 200 days
[5]; two of the six responders
  responders who became independent of RBC transfusion: 33%
[6]; 16/43, at least 2 cycles of azacitidine
  patients with a history of transfusions who achieved transfusion-independence: 37%
[6]; 22/27, at least 2 cycles of azacitidine
  patients without a history of transfusion who achieved transfusion independence: 81%
[6]; patients with a history of transfusions
  median cycles to transfusion independence: 6 cycles
[6]; patients without a history of transfusion
  median cycles to transfusion independence: 4 cycles
